Columns and labels:
[1] = biological target: HER2 (human epidermal growth factor receptor 2) (Homo sapiens (Human), UniProt P04626); assay: In vitro kinase inhibitory activity, HER-2; type: biochemical
Description: (§1) Stop buffer was prepared from 100 mM HEPES, pH 7.5, 0.015% Brij-35, 0.2% Coating Reagent #3, and 50 mM EDTA.
Kinase reaction was performed according to the following procedures: (1) 2.5× kinase solution was prepared by adding kinase into 1× kinase base buffer; (2) 2.5× peptide solution was prepared by adding FAM-labeled peptide and ATP into 1× kinase base buffer; (3) 2.5× kinase solution (10 μL) was added to each well of the 384-well assay plate containing 5 μL of compound in 10% DMSO and then the assay plate was incubated at room temperature for 10 minutes; (4) 2.5× peptide solution (10 μL) was added to each well of the 384-well assay plate; and (5) stop buffer (25 μL) was added to stop the kinase reaction after incubation at 28° C. for a specified period of time. […]
(§2) Conversion data were copied, and then converted to inhibition values with the following formula: percent inhibition=(max−conversion)/(max−min)*100 where “max” stands for the DMSO control value, “conversion” stands for the sample value and “[…]” stands for the no-kinase control value. The data were fitted in XLfit to obtain IC50 values.

[2] = biological target: EGFR (human epidermal growth factor receptor) (Homo sapiens (Human), UniProt P00533); assay: In vitro kinase inhibitory activity, EGFR; type: biochemical
Description: as §1
(§3) Kinase reaction was performed according to the following procedures: (1) 2.5× kinase solution was prepared by adding kinase into 1× kinase base buffer; (2) 2.5× peptide solution was prepared by adding FAM-labeled peptide and ATP into 1× kinase base buffer; (3) 2.5× kinase solution (10 μL) was added to each well of the 384-well assay plate containing 5 μL of compound in 10% DMSO and then the assay plate was incubated at room temperature for 10 minutes; (4) 2.5× peptide solution (10 μL) was added to each well of the 384-well assay plate; and (5) stop buffer (25 μL) was added to stop the kinase reaction after incubation at 28° C. for a specified period of time.
(§4) Multifunctional microplate reader (BMG LABTECH, PHER Astar FS) with a 320 nm excitation wavelength was used to read and collected the data of by absorbing light at […], which was converted from the rate of 665 signal/620 signal.
as §2

[3] = Rat PK (pharmacokinetics after iv and po administration); type: in vivo; details: male, SD, plasma; for Vd: read-out: Vss; for bioavailability: po 5 vs iv 2 (g/kg [sic]; mg/kg in method), read-out: F (bioavailability)
Description: Materials used include Propranolol (internal standard), methyl alcohol, ammonium acetate, K2EDTA (potassium ethylenediaminetetraacetate), methane acid, acetonitrile, MTBE (methyl tert-butyl ether), Cremophor EL (polyoxyethylated castor oil), KolliphorHS 15 (polyethylene glycol 12-hydroxystearate), DMSO (dimethylsulfoxide), PEG400 (polyethylene glycol 400) and SD rat (male, 180-220 g, 7-8 weeks old, purchased from Hunan Slack King of Laboratory Animal Co., Ltd.), all of which are commercially available.
Each test compound prepared in above examples was completely dissolved in a mixture of 5% DMSO, 5% KolliphorHS 15 and 90% saline.
(1) The test sample stock solution was prepared by dissolving an accurately weighed test sample in DMSO followed by dilution to the concentration of 1 mg/mL with acetonitrile. The stock solution was stored under the condition of −20° C. for later use.
(2) Internal standard solution was prepared by diluting a certain amount of the Propranolol stock solution in the concentration of 1 mg/mL to 100 ng/mL with water.
Samples treated with liquid-liquid extraction and chromatographic separation were analyzed by triple quadrupole tandem mass spectrometer in multiple reaction monitoring (MRM) mode for quantitative analysis.
Pretreatment of plasma sample was performed according to the following procedures: (1) plasma sample (30 μL) was precisely measured, and internal standard (250 μL) was then added to the plasma sample which was then mixed by vortexing; (2) the sample was extracted once with 1 mL of MTBE and then centrifuged at 13000 rpm for 2 minutes at 4° C.; (3) supernatant (800 μL) was aspirated and dried with 96 holes nitrogen gas blowing; (4) the residue was dissolved with 150 μL of a mixture of methanol and water (v/v=1/1) and then mixed by vortexing; and (5) sampling: sample quantity was 8 μL.
Preparation of standard sample was performed according to the following procedures: (1) a pre-determined amount of the compound stock solution was precisely measured, and then was diluted to standard series of solution with acetonitrile; (2) each of the standard solution (20 μL) prepared above was precisely measured and to each was added 180 μL of blank plasma; (3) each sample was mixed by vortexing to obtain series of standard samples in which the plasma concentration was 3, 5, 10, 30, 100, 300, 1000, 3000, 5000 or 10000 ng/mL; and (4) standard curve was established.
The content of each test compound in rat plasma after administration was determined by LC/MS/MS.
Noncompartmental analysis to calculate pharmacokinetic parameters was performed with WinNonlin 6.1 software.

[4] = biological target: EGFR T790M (human epidermal growth factor receptor T790M mutation) (Homo sapiens (Human), UniProt P00533, T790M); assay: In vitro kinase inhibitory activity, EGFR T790M; type: biochemical
Description: as §1, §3, §4, §2

[5] = iv(2 g/kg) [sic], method says 2 mg/kg
[6] = po(5 g/kg) [sic], method says 5 mg/kg

EGFR (human epidermal growth factor receptor), sequence (P00533 25-1210): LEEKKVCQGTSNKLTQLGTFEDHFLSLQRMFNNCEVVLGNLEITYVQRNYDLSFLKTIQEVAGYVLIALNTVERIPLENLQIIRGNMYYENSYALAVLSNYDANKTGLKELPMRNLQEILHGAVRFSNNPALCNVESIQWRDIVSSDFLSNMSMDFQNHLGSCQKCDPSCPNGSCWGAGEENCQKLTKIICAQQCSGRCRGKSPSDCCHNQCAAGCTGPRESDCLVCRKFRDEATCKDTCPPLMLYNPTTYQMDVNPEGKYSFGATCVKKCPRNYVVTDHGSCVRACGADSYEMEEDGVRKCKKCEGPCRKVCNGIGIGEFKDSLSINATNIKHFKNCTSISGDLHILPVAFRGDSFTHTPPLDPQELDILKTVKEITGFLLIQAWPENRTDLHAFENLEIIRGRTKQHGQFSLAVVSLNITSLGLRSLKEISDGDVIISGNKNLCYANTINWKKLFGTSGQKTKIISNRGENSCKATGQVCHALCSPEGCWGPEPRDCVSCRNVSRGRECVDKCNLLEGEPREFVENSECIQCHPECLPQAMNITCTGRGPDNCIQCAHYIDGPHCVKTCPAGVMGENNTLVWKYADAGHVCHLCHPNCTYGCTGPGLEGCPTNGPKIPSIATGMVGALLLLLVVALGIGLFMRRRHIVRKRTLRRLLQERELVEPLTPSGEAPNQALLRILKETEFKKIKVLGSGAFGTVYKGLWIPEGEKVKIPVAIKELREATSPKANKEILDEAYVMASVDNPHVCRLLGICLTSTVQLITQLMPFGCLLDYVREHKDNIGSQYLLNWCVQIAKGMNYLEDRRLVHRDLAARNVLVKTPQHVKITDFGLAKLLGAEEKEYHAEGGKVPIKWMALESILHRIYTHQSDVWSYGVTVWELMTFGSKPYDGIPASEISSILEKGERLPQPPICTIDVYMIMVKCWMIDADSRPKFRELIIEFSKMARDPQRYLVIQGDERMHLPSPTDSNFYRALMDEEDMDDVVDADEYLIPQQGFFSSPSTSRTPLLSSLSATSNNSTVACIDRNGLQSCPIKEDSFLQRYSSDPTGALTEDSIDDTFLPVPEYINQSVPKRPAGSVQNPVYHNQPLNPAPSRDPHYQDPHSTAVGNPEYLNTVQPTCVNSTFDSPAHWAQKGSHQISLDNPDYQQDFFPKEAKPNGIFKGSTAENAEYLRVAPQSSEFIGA
HER2 (human epidermal growth factor receptor 2), sequence (P04626 23-1255): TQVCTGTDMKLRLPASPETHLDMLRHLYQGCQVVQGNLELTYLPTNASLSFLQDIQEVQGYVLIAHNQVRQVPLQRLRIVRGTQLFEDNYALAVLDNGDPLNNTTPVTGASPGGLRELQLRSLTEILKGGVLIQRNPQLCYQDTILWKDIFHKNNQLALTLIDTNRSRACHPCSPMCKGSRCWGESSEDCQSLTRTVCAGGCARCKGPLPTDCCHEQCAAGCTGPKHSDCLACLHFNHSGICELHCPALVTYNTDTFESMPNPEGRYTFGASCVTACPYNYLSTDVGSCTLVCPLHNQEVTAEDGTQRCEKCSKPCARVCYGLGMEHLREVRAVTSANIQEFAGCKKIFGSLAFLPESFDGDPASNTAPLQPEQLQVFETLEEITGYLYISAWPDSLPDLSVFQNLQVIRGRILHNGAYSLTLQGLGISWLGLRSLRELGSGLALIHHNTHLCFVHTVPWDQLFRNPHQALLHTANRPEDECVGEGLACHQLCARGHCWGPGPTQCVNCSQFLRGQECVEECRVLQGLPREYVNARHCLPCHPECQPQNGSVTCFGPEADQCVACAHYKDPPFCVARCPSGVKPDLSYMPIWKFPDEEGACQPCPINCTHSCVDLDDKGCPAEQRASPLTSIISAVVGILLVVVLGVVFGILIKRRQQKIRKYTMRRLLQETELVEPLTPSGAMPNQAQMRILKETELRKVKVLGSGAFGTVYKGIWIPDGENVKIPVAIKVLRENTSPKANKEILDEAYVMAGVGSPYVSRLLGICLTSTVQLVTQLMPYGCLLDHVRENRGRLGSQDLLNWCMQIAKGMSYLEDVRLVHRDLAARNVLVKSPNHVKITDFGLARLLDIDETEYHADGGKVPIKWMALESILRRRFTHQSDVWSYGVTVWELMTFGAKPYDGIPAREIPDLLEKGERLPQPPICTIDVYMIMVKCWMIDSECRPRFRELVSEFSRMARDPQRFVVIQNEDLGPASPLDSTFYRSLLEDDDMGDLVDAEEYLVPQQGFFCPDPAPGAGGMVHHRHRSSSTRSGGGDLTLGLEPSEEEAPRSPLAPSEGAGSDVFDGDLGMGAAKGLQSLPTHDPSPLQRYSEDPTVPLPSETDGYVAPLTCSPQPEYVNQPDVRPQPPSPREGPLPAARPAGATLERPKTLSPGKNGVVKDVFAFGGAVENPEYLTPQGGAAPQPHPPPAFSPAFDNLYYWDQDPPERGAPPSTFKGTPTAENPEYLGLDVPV
EGFR T790M (human epidermal growth factor receptor T790M mutation), sequence (P00533 25-1210 T790M): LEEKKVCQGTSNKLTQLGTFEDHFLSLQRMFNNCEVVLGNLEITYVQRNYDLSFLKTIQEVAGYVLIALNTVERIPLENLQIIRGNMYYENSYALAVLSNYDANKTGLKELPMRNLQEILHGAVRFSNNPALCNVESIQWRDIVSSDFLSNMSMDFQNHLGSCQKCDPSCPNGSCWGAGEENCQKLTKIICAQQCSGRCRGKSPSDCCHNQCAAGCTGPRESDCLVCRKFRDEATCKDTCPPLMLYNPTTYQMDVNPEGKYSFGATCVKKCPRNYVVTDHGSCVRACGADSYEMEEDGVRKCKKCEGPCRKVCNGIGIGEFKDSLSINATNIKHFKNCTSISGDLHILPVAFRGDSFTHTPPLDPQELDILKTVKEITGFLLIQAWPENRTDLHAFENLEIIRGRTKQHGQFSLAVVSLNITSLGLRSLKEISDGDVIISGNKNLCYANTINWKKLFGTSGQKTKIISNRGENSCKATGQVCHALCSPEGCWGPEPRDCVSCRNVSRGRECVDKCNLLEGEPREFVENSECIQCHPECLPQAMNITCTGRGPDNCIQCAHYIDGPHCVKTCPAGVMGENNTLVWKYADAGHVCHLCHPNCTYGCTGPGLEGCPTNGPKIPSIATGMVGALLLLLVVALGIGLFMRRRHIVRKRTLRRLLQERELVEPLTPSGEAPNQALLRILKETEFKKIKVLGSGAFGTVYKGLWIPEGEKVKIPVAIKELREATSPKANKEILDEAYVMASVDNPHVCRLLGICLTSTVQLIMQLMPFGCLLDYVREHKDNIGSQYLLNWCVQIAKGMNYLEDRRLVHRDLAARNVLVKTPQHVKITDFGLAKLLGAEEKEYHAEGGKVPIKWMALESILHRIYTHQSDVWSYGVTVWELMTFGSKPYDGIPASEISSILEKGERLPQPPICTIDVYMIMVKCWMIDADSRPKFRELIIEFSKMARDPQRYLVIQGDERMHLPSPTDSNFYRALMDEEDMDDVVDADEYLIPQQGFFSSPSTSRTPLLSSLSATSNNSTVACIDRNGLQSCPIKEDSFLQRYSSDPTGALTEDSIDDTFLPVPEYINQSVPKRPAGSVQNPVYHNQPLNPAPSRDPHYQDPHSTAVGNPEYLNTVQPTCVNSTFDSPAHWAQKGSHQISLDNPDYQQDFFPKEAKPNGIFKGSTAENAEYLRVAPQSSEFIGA

Row | Compound | IC50 [1] [nM] | IC50 [2] [nM] | AUC(0-t) [3, 5] [ng·h/mL] | Cmax [3, 5] [ng/mL] | half-life [3, 5] [min] | Vd [3, 5] [L/kg] | bioavailability [3] [%] | AUC(0-t) [3, 6] [ng·h/mL] | Cmax [3, 6] [ng/mL] | half-life [3, 6] [min] | IC50 [4] [nM]
1 | COc1cc2ncnc(Nc3ccc4c(cnn4Cc4cccc(F)c4)c3)c2cc1NC(=O)/C=C/CN1C[C@@H]2OCCO[C@@H]2C1 [Example 27, (E)-N-(4-((1-(3-Fluorobenzyl)-1H-indazol-5-yl)amino)-7-methoxyquinazolin-6-yl)-4-((4aR,7aS)-tetra hydro-2H-[1,4]dioxin[2,3-c]pyrrol-6(3H)-yl)but-2-enamide] | 2.2 | 7.9 | 1190 | 923 | 118 | 3.65 | 10.8 | 303 | 67.8 | 140 | 22.9
2 | O=C(/C=C/CN1C[C@@H]2OCCO[C@@H]2C1)Nc1cc2c(Nc3ccc(OCc4ccccn4)c(Cl)c3)ncnc2cc1O[C@H]1CCOC1 [Example 25, (E)-N-(4-((3-Chloro-4-(pyridin-2-ylmethoxy)phenyl)amino)-7-(((S)-tetrahydrofuran-3-yl)oxy)quinazolin-6-yl)-4-((4aR,7aS)-tetrahydro-2H-[1,4]dioxino[2,3-c]pyrrol-6(3H)-yl)but-2-enamide] | 2.5 | 8.6 | 4530 | 4110 | 85.2 | 0.65 | 5.94 | 474 | 73 | 265 | 5.9
3 | COc1cc2ncnc(Nc3ccc(Cl)c(Cl)c3F)c2cc1NC(=O)/C=C/CN1C[C@@H]2OCCO[C@@H]2C1 [Example 31, (E)-N-(4-((3,4-Dichloro-2-fluorophenyl)amino)-7-methoxyquinazolin-6-yl)-4-((4aR,7aS)-tetrahydro-2H-[1,4]dioxino[2,3-c]pyrrol-6(3H)-yl)but-2-enamide] | 9.1 | 2.1 | 2990 | 1210 | 220 | 2.58 | 93.5 | 6980 | 794 | 190 | 6.4
4 | O=C(/C=C/CN1C[C@@H]2OCCO[C@@H]2C1)Nc1cc2c(Nc3ccc(Cl)c(Cl)c3F)ncnc2cc1O[C@H]1CCOC1 [Example 34, (E)-N-(4-((3,4-Dichloro-2-fluorophenyl)amino)-7-(((S)-tetrahydrofuran-3-yl)oxy)quinazolin-6-yl)-4-((4aR,7aS)-tetrahydro-2H-[1,4]dioxino[2,3-c]pyrrol-6(3H)-yl)but-2-enamide] | 20.3 | 3.3 | 951 | 645 | 69 | 3.18 | 68.7 | 1550 | 378 | 84 | 7
5 | CCOc1cc2ncnc(Nc3ccc(Cl)c(Cl)c3F)c2cc1NC(=O)/C=C/CN1C[C@@H]2OCCO[C@@H]2C1 [Example 32, (E)-N-(4-((3,4-Dichloro-2-fluorophenyl)amino)-7-ethoxyquinazolin-6-yl)-4-((4aR,7aS)-tetrahydro-2H-[1,4]dioxino[2,3-c]pyrrol-6(3H)-yl)but-2-enamide] | 7 | 1.2 | 2170 | 1000 | 177 | 2.97 | 108 | 6220 | 748 | 178 | 4
6 | COc1cc2ncnc(Nc3ccc(OCc4ccccn4)c(Cl)c3)c2cc1NC(=O)/C=C/CN1C[C@@H]2OCCO[C@@H]2C1 [Example 23, (E)-N-(4-((3-Chloro-4-(pyridin-2-ylmethoxy)phenyl)amino)-7-methoxyquinazolin-6-yl)-4-((4 aR,7aS)tetrahydro-2H-[1,4]dioxino[2,3-c]pyrrol-6(3H)-yl)but-2-enamide] | 1.8 | 60.4 | 7560 | 2770 | 184 | 0.88 | 73.5 | 13900 | 1930 | 166 | 8.5
7 | CCOc1cc2ncnc(Nc3ccc4c(cnn4Cc4cccc(F)c4)c3)c2cc1NC(=O)/C=C/CN1C[C@@H]2OCCO[C@@H]2C1 [Example 28, (E)-N-(7-Ethoxy-4-((1-(3-fluorobenzyl)-1H-indazol-5-yl)amino)quinazolin-6-yl)-4-((4aR,7aS)-tetrahydro-2H-[1,4]dioxino[2,3-c]pyrrol-6(3H)-yl)but-2-enamide] | 1.6 | 40.1 | 692 | 450 | 119 | 6.66 | 41.5 | 721 | 147 | 84.6 | 14.5
